Data on nine compounds can be found in patent publication US20230183751A1, “HDR ENHANCERS” (OXFORD GENETICS LIMITED, priority 2020, published 2023).

Data set [1] deals with HDR in HEK293 reporter cell line (truncated EGFP). The data set can be described thus: HDR assay with paired nickases Cas9n D10A RNP and ssOligo donor, EGFP-positive cells by FACS. Format: cell-based, human. The following applies: FIG. 3; for dose-dependency of HDR efficiency: three concentrations (low, medium, high); for concentration with highest HDR efficiency: three concentrations tested. On the procedure: More specifically, an HDR assay using a HEK reporter cell line containing truncated EGFP may be used. These cells may be transfected with a transfection complex containing the CRISPR endonuclease and a donor sequence. Cas9 RNPs may be prepared by following the manufacturers' guidelines. The transfection complex may be prepared by adding Cas9 RNP or Cas9 nickase RNP, along with ssOligo donor and lipofectamine 2000 in Optimem. Reagents should be mixed well and incubated for 20 mins. After 20 mins, 50 μlof transfection complex (at an optimal concentration—see the Examples herein) may be transferred in a 96 well plate and 50 μlHEK293 reporter cell line suspension (9×10^5 cells/ml) added followed by 50 μl of cell culture medium containing appropriate concentration(s) of inhibitor(s). Cells may be incubated at 37° C. in a CO2 incubator for 24 hours and then inhibitor-containing media should be replaced with fresh media without inhibitor. Cells are then further incubated for 48 hours. After 48 hours, cells may be trypsinized and resuspended in PBS containing 10% FBS. Samples may be run on FACS and the percentage of EGFP in the population measured. Presence of EGFP directly correlates with HDR efficiency. […]
To understand if inhibitors have any influence on HDR mediated by paired nickases, we carried out an HDR assay in the presence of the small molecule inhibitor library. Briefly, in vitro reconstituted Cas9n D10A RNP with gRNA-X1 and gRNA-X2 was transfected into the reporter cell line along with ssOligo donor in the presence of different small molecule inhibitors. Inhibitor-containing media was replaced with fresh media after 24 hours and the cells were then further incubated for 48 hours. After 48 hours, the cells were trypsinized and resuspended in 10% FBS containing PBS and analysed by FACS. EGFP-positive cells were monitored; these represented successful HDR events. […]
On the technique in general: In flow cytometry, cells or beads pass a laser one at a time.

In another data set the test system is HEK reporter cell line. The data set can be described thus: cell-viability assay with alamar blue reagent. It is filed as cell-based, human. The following applies: 72 hours. On the procedure:
To investigate the effect of this library on HDR efficiency and to identify novel molecules which would increase the HDR mediated gene editing efficiency, first we carried out a cell-viability assay using the HEK reporter cell line and alamar blue reagent. The experiment was performed to rule out any toxicity associated with the small molecule library. Briefly, 3 different concentration of inhibitors (0.1 μM, 1 μM and 10 μM) were added in the cells in a 96 well plate format and plates were incubated for 72 hours. After 72 hours, the media were replaced with alamar blue containing media and the plates were further incubated for 3 hours and then read on a Fluorstar omega plate reader. The table gives the results obtained with the subsequently-selected inhibitors, together with a range of other potential inhibitors.
On the technique in general: Resazurin is reduced to fluorescent resorufin, in cell work by metabolically active cells.

Each structure is given as a SMILES string.

Turning to `O=c1cc(N2CCOCC2)oc2c(-c3cccc4c3sc3ccccc34)cccc12` [NU7441], in data set [1], the “dose-dependency of HDR efficiency” value is given as “dose-dependent increases in HDR efficiency”. Further, the “concentration with highest HDR efficiency” value (shortened to “concentration”) in data set [1] is 2 µM. Besides, the “% survival” value is 103.58 ± 4.44% with HEK reporter cell line (0.1 μM inhibitor), 88.88 ± 3.55% in the data set on HEK reporter cell line (1 μM inhibitor) and 22.95 ± 0.98% in the data set on HEK reporter cell line (10 μM inhibitor).

In the case of `O=c1cc(N2CCOCC2)oc2c1ccc1ccccc12` [NU7026], the “% survival” value amounted to 100.08 ± 4.01% with HEK reporter cell line (0.1 μM inhibitor), 100.14 ± 4.13% with HEK reporter cell line (1 μM inhibitor) and 83.17 ± 1.44% with HEK reporter cell line (10 μM inhibitor).

Turning to `O=C(Nc1c[nH]nc1-c1nc2cc(CN3CCOCC3)ccc2[nH]1)NC1CC1` [AT9283], in data set [1], the “dose-dependency of HDR efficiency” value is listed as “moderate decreases in HDR efficiency upon increasing the inhibitor concentration” and the “concentration” value came out at 0.05 µM.

For the compound `Clc1cc2c(NC3CCCC3)nnc(-c3ccncc3)c2cc1Cl` [A196], the “dose-dependency of HDR efficiency” value in data set [1] is recorded as “dose-dependent increases in HDR efficiency”. Besides, the “concentration” value in data set [1] was 20 µM. The “% survival” value with HEK reporter cell line (0.1 μM inhibitor) is recorded as 105.84 ± 0.05%; with HEK reporter cell line (1 μM inhibitor) it was 107.75 ± 6.83%; in the data set with HEK reporter cell line (10 μM inhibitor), 107.43 ± 0.21%.

For `COc1ccc(CCC(=O)Nc2nc3ccc(Cl)cc3s2)cc1OC` [KY02111], the “dose-dependency of HDR efficiency” value in data set [1] is given as “did not show any significant dose-dependency”. Also, the “% survival” value with HEK reporter cell line (0.1 μM inhibitor) stood at 100.52 ± 2.05%; in the data set on HEK reporter cell line (1 μM inhibitor), 100.86 ± 1.83%; in the data set on HEK reporter cell line (10 μM inhibitor), 95.18 ± 2.27%.

As for `CN(C)[C@H]1CN(C2CCc3cccc(F)c32)C[C@@H]1c1ccc(N2CCN(S(C)(=O)=O)CC2)cc1` (some centres unmarked) [A395], the “dose-dependency of HDR efficiency” value in data set [1] is “did not show any significant dose-dependency”. Also, the results for the “% survival” value in the data set with HEK reporter cell line (0.1 μM inhibitor), with HEK reporter cell line (1 μM inhibitor) and in the data set with HEK reporter cell line (10 μM inhibitor) were 100.35 ± 1.4%, 103.27 ± 0.32% and 87.94 ± 9.49%, respectively.

Regarding `CCCCc1nc2cc(/C=C/C(=O)NO)ccc2n1CCN(CC)CC` [SB939], the “dose-dependency of HDR efficiency” value in data set [1] is given as “moderate decreases in HDR efficiency upon increasing the inhibitor concentration”. Moreover, the “concentration” value in data set [1] was 0.05 µM. Also, the “% survival” value in the data set on HEK reporter cell line (0.1 μM inhibitor) was determined as 80.99 ± 1.01%; with HEK reporter cell line (1 μM inhibitor) it was 15.56 ± 2.26%; in the data set on HEK reporter cell line (10 μM inhibitor) it was 2.25 ± 0.31%.

In the case of `CCN(C(=O)CO)[C@H]1CN(/C(=N\C#N)Nc2cccc(OC(F)F)c2)N=C1c1ccc(Cl)c(Cl)c1` [BAY598], the “dose-dependency of HDR efficiency” value in data set [1] is listed as “dose-dependent increases in HDR efficiency”. Moreover, in data set [1], the “concentration” value came out at 20 µM. Further, the “% survival” value in the data set with HEK reporter cell line (0.1 μM inhibitor) turned out to be 102.45 ± 0.9%; in the data set on HEK reporter cell line (1 μM inhibitor) it was 102.92 ± 0.42%; in the data set on HEK reporter cell line (10 μM inhibitor), 101.44 ± 8.52%.

Turning to `Cl.O=C([C@@H](Cc1cccc(C(F)(F)F)c1)NS(=O)(=O)c1cc(F)c2c(c1)CCNC2)N1CCCC1` [(R)-PFI2 hydrochloride], the “dose-dependency of HDR efficiency” value in data set [1] was “dose-dependent increases in HDR efficiency”. The “concentration” value in data set [1] was found to be 20 µM. Further, the “% survival” value with HEK reporter cell line (0.1 μM inhibitor) is on record as 102.58 ± 0.88%; in the data set on HEK reporter cell line (1 μM inhibitor), 101.51 ± 4.1%; with HEK reporter cell line (10 μM inhibitor), 96.42 ± 0.64%.
